Data set [1] in a line: The drug is tested on Bacteroides xylanisolvens strain: DSM18836 for biotransformation. The drug concentrations were measured before and after a 12-h incubation by liquid-chromatography-coupled mass spectrometry (LC–MS). The settings on record: 2 µM.
Data set [2] can be described thus: The drug is tested on Clostridium sporogenes strain: ATCC15579 for biotransformation. The drug concentrations were measured before and after a 12-h incubation by liquid-chromatography-coupled mass spectrometry (LC–MS). The conditions noted are these: 2 µM.
A short description of data set [3]: The drug is tested on Collinsella intestinalis strain: DSM13280 for biotransformation. The drug concentrations were measured before and after a 12-h incubation by liquid-chromatography-coupled mass spectrometry (LC–MS). The conditions noted are these: 2 µM.
Data set [4] is described as follows: The drug is tested on Eubacterium ventriosum strain: ATCC27560 for biotransformation. The drug concentrations were measured before and after a 12-h incubation by liquid-chromatography-coupled mass spectrometry (LC–MS). The data set is classed as ADME. On the set-up: dose 2 uM, timepoint 0 vs 12 hours. The settings on record: 2 µM.
Data set [5] can be described thus: The drug is tested on Alistipes indistinctus strain: DSM22520 for biotransformation. The drug concentrations were measured before and after a 12-h incubation by liquid-chromatography-coupled mass spectrometry (LC–MS). The settings on record: 2 µM.
For data set [6] the following is noted: segatella copri, 12 h, 2 µM.
The conditions of data set [7]: akkermansia muciniphila, 12 h, 2 µM.
Data set [8] is described as follows: The drug is tested on Bacteroides fragilis strain: ATCC43859 for biotransformation. The drug concentrations were measured before and after a 12-h incubation by liquid-chromatography-coupled mass spectrometry (LC–MS). The settings on record: 2 µM.
The nature of data set [9]: The drug is tested on Blautia luti strain: DSM14534 for biotransformation. The drug concentrations were measured before and after a 12-h incubation by liquid-chromatography-coupled mass spectrometry (LC–MS). The data set is classed as ADME. Also noted: dose 2 uM, timepoint 0 vs 12 hours. The conditions noted are these: 2 µM.
A short description of data set [10]: The drug is tested on Bacteroides pectinophilus strain: ATCC43243 for biotransformation. The drug concentrations were measured before and after a 12-h incubation by liquid-chromatography-coupled mass spectrometry (LC–MS). The conditions noted are these: 2 µM.
Data set [11] is described as follows: The drug is tested on Subdoligranulum variabile strain: DSM15176 for biotransformation. The drug concentrations were measured before and after a 12-h incubation by liquid-chromatography-coupled mass spectrometry (LC–MS). The conditions noted are these: 2 µM.
For data set [12] the following is noted: bacteroides thetaiotaomicron, 12 h, 2 µM.
Data set [13] can be described thus: The drug is tested on Providencia stuartii strain: ATCC25827 for biotransformation. The drug concentrations were measured before and after a 12-h incubation by liquid-chromatography-coupled mass spectrometry (LC–MS). The settings on record: 2 µM.
The conditions of data set [14]: enterocloster bolteae, 12 h, 2 µM.
Description: The drug is tested on Clostridium bolteae strain: ATCCBAA-613 for biotransformation. The drug concentrations were measured before and after a 12-h incubation by liquid-chromatography-coupled mass spectrometry (LC–MS)
A short description of data set [15]: The drug is tested on Coprococcus comes strain: ATCC27758 for biotransformation. The drug concentrations were measured before and after a 12-h incubation by liquid-chromatography-coupled mass spectrometry (LC–MS). The conditions noted are these: 2 µM. Format: ADME. Also noted: dose 2 uM, timepoint 0 vs 12 hours.
The conditions of data set [16]: bacteroides fragilis, 12 h, 2 µM.
Description: The drug is tested on Bacteroides fragilis strain: 3397 (T10) for biotransformation. The drug concentrations were measured before and after a 12-h incubation by liquid-chromatography-coupled mass spectrometry (LC–MS)
For data set [17] the following is noted: bacteroides thetaiotaomicron, 12 h, 2 µM. The source holds these as a separate data set.
The nature of data set [18]: The drug is tested on Clostridium ramosum strain: DSM1402 for biotransformation. The drug concentrations were measured before and after a 12-h incubation by liquid-chromatography-coupled mass spectrometry (LC–MS). The conditions noted are these: thomasclavelia ramosa, 2 µM.
The nature of data set [19]: The drug is tested on Bacteroides finegoldii strain: DSM17565 for biotransformation. The drug concentrations were measured before and after a 12-h incubation by liquid-chromatography-coupled mass spectrometry (LC–MS). The conditions noted are these: 2 µM.

This is an account of results in ChEMBL document CHEMBL5303573, “Mapping human microbiome drug metabolism by gut bacteria and their genes” (Nature, 2019).

Molecules are shown by their SMILES.

For the molecule `N#Cc1ccc2[nH]cc(CCCCN3CCN(c4ccc5oc(C(N)=O)cc5c4)CC3)c2c1` [VILAZODONE], the “Bacterial Biotransformation” value in data set [1] is “Compound metabolized”; in data set [2], “Compound metabolized”; in data set [3], “Compound NOT metabolized”; in data set [4] it was “Compound NOT metabolized”; in data set [5] it was “Compound metabolized”; in data set [6], “Compound metabolized”. The “Bacterial Biotransformation” value was “Compound NOT metabolized” in data set [7]; “Compound metabolized” in data set [8]; “Compound NOT metabolized” in data set [9]; “Compound NOT metabolized” in data set [10]; “Compound NOT metabolized” in [11]; “Compound metabolized” in data set [12]. The “Bacterial Biotransformation” value in [13] is given as “Compound metabolized”; in [14] it was “Compound NOT metabolized”; in data set [15], “Compound NOT metabolized”; in data set [16], “Compound metabolized”; in data set [17], “Compound metabolized”.

In the case of `CS(=O)(=O)O.O.O.O.O=C1Cc2cc(CCN3CCN(c4nsc5ccccc45)CC3)c(Cl)cc2N1` [ZIPRASIDONE MESYLATE], the “Bacterial Biotransformation” value is given as “Compound NOT metabolized” in [1]; “Compound NOT metabolized” in data set [3]; “Compound NOT metabolized” in [4]; “Compound metabolized” in [5]; “Compound NOT metabolized” in data set [6]; “Compound NOT metabolized” in data set [7]. Further, the “Bacterial Biotransformation” value in data set [8], in data set [9], in data set [10], in data set [11], in data set [18] and in data set [12] was “Compound NOT metabolized” each time. Moreover, the “Bacterial Biotransformation” value in [13], in data set [14], in data set [19], in [15], in data set [16] and in [17] was “Compound NOT metabolized” in each case.

`COc1ccc(CCN(C)CCCC(C#N)(c2ccc(OC)c(OC)c2)C(C)C)cc1OC` (stereo unspecified): the “Bacterial Biotransformation” value in [1] was “Compound metabolized”; in [3] it was “Compound NOT metabolized”; in [5], “Compound NOT metabolized”; in [6] it was “Compound metabolized”; in data set [7], “Compound metabolized”; in data set [8], “Compound NOT metabolized”. Further, the “Bacterial Biotransformation” value in [9] was “Compound NOT metabolized”; in data set [10] it was “Compound NOT metabolized”; in data set [11], “Compound NOT metabolized”; in data set [12], “Compound metabolized”; in data set [13], “Compound NOT metabolized”; in data set [19] it was “Compound NOT metabolized”. For the same molecule, the “Bacterial Biotransformation” value in data set [15] was “Compound NOT metabolized”; in data set [17] it was “Compound metabolized”.

For `OC(c1cc(C(F)(F)F)nc2c(C(F)(F)F)cccc12)C1CCCCN1` (stereo unspecified) [MEFLOQUINE], the “Bacterial Biotransformation” value in data set [1], in [3], in data set [4], in data set [5], in data set [6] and in [8] was “Compound NOT metabolized” each time. For the same molecule, the “Bacterial Biotransformation” value in [9], in data set [10], in [11], in [12], in data set [13] and in data set [14] was “Compound NOT metabolized” each time. In addition, the “Bacterial Biotransformation” value in data set [19], in [15], in [16] and in data set [17] was “Compound NOT metabolized” each time.

As to `CN[C@H]1CC[C@@H](c2ccc(Cl)c(Cl)c2)c2ccccc21` [SERTRALINE], the “Bacterial Biotransformation” value in data set [2], in [3], in [5], in [6], in data set [8] and in data set [9] was “Compound NOT metabolized” each time. Moreover, the “Bacterial Biotransformation” value in [10], in data set [11], in [18], in data set [12], in data set [19] and in data set [16] was “Compound NOT metabolized” each time. For the same molecule, the “Bacterial Biotransformation” value in [17] was “Compound NOT metabolized”.

For the molecule `NC(CO)(CO)CO.O=C(c1ccccc1)c1ccc2n1CCC2C(=O)O` (stereo unspecified) [KETOROLAC TROMETHAMINE], the “Bacterial Biotransformation” value in [1] is “Compound metabolized”; in data set [2], “Compound NOT metabolized”; in data set [4], “Compound NOT metabolized”; in data set [5] it was “Compound NOT metabolized”; in data set [6] it was “Compound metabolized”; in data set [8], “Compound metabolized”. Moreover, the “Bacterial Biotransformation” value in data set [9] is “Compound NOT metabolized”; in data set [10] it was “Compound NOT metabolized”; in data set [11], “Compound metabolized”; in [18], “Compound NOT metabolized”; in data set [12], “Compound metabolized”; in data set [13] it was “Compound NOT metabolized”. In addition, the “Bacterial Biotransformation” value in data set [14] is “Compound NOT metabolized”.

For the molecule `CCN(CC)CCCC(C)Nc1c2ccc(Cl)cc2nc2ccc(OC)cc12` (stereo unspecified) [QUINACRINE], the “Bacterial Biotransformation” value in data set [1], in data set [2], in data set [3], in data set [4], in data set [6] and in [7] was “Compound NOT metabolized” in each case. Besides, the “Bacterial Biotransformation” value in data set [8], in data set [9], in data set [10], in [11], in [18] and in [12] was “Compound NOT metabolized” in each case. Also, the “Bacterial Biotransformation” value in data set [13], in [14], in data set [19], in data set [15], in data set [16] and in data set [17] was “Compound NOT metabolized” each time.

Take `c1ccc2[nH]c(-c3cscn3)nc2c1` [THIABENDAZOLE]: the “Bacterial Biotransformation” value in [1], in [2], in [3], in [4], in data set [5] and in data set [6] was “Compound NOT metabolized” throughout. Moreover, the “Bacterial Biotransformation” value in data set [7], in data set [8], in data set [9], in [10], in data set [11] and in data set [18] was “Compound NOT metabolized” each time. For the same molecule, the “Bacterial Biotransformation” value in [13], in [14], in [19], in data set [15] and in data set [16] was “Compound NOT metabolized” each time.
